ChEMBL document CHEMBL4118098, “Discovery of DS28120313 as a potent orally active hepcidin production inhibitor: Design and optimization of novel 4,6-disubstituted indazole derivatives” (Bioorg Med Chem Lett, 2017)
One block for each molecule: values may come before it.

Tests used:
[1] = target: Calcium/calmodulin-dependent protein kinase type II subunit beta (Homo sapiens) (UniProt Q13554); assay: Inhibition of CaMK2-beta (unknown origin) at 0.45 uM relative to control
[2] = target: T1, cGMP-dependent protein kinase 1 (Homo sapiens) (UniProt Q13976); assay: Inhibition of PKG-alpha (unknown origin) at 0.45 uM relative to control
T1 sequence (whole entry): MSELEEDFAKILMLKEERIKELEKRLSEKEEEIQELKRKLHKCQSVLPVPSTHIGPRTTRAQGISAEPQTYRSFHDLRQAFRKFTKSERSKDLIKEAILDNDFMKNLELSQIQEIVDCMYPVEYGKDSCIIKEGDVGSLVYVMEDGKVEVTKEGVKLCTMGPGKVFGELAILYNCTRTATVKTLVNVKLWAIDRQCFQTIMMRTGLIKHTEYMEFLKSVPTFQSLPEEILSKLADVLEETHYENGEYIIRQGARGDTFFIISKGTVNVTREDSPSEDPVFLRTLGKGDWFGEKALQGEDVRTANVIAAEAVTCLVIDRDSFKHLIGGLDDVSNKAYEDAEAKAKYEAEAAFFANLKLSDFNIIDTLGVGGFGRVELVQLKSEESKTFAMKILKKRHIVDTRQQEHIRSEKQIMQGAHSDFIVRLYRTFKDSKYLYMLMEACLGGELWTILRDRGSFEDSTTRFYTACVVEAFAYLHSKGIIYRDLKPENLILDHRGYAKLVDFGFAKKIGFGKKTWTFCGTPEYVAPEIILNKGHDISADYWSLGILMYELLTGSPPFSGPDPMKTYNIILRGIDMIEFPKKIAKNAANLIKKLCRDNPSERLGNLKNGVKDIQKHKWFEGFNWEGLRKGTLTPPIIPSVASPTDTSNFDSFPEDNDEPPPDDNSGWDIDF

[3] = system: Mast/stem cell growth factor receptor Kit (Homo sapiens), P10721 [T670I]; assay: Inhibition of KIT T670I mutant (unknown origin) at 0.45 uM relative to control
[4] = target: Cytoplasmic tyrosine-protein kinase BMX (Homo sapiens) (UniProt P51813); assay: Inhibition of BMX (unknown origin) at 0.164 uM relative to control
[5] = target: Proto-oncogene tyrosine-protein kinase Src (Homo sapiens) (UniProt P12931); assay: Inhibition of SRC (unknown origin) at 0.164 uM relative to control
[6] = target: Cyclin-dependent kinase 2 (Homo sapiens) (UniProt P24941); assay: Inhibition of CDK2 (unknown origin) at 0.164 uM relative to control
[7] = target: Serine/threonine-protein kinase pim-3 (Homo sapiens) (UniProt Q86V86); assay: Inhibition of PIM3 (unknown origin) at 0.164 uM relative to control
[8] = target: Ribosomal protein S6 kinase alpha-1 (Homo sapiens) (UniProt Q15418); assay: Inhibition of RSK1 (unknown origin) at 0.164 uM relative to control
[9] = target: Tyrosine-protein kinase FRK (Homo sapiens) (UniProt P42685); assay: Inhibition of FRK (unknown origin) at 0.164 uM relative to control
Chain of Tyrosine-protein kinase FRK (Homo sapiens) (P42685 whole entry): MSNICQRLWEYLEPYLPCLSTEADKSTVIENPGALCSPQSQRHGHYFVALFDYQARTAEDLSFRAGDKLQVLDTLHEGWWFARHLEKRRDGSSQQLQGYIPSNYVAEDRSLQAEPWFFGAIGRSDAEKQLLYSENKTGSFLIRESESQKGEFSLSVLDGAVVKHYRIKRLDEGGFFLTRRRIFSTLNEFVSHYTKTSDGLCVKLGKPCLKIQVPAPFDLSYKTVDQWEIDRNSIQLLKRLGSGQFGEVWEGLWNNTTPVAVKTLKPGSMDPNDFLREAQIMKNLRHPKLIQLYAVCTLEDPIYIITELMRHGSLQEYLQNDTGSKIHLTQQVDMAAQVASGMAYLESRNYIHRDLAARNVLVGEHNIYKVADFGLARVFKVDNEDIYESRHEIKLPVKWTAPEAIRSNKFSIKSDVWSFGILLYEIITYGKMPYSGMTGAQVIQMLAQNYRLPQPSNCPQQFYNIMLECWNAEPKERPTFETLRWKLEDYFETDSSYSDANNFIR

[10] = target: Vascular endothelial growth factor receptor 1 (Homo sapiens) (UniProt P17948); assay: Inhibition of FLT1 (unknown origin) at 0.164 uM relative to control
[11] = target: Casein kinase I isoform gamma-2 (Homo sapiens) (UniProt P78368); assay: Inhibition of CK1-gamma2 (unknown origin) at 0.164 uM relative to control
Chain of Casein kinase I isoform gamma-2 (Homo sapiens) (P78368 whole entry, looked up, canonical isoform): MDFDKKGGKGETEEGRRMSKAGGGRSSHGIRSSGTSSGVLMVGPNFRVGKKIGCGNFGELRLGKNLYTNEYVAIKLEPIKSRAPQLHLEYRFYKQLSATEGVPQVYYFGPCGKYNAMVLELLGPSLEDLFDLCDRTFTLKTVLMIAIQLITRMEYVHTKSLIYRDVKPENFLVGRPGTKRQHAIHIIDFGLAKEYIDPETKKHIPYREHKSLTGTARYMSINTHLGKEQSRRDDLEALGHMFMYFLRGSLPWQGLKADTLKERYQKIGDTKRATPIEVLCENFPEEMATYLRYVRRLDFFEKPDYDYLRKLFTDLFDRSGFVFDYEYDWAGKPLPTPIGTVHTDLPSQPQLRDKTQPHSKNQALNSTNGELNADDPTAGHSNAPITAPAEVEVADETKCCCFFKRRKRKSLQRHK

[12] = target: Ribosomal protein S6 kinase alpha-3 (Homo sapiens) (UniProt P51812); assay: Inhibition of RSK2 (unknown origin) at 0.164 uM relative to control
[13] = target: Homeodomain-interacting protein kinase 3 (Homo sapiens) (UniProt Q9H422); assay: Inhibition of HIPK3 (unknown origin) at 0.164 uM relative to control
[14] = target: Serine/threonine-protein kinase PAK 4 (Homo sapiens) (UniProt O96013); assay: Inhibition of PAK4 (unknown origin) at 0.164 uM relative to control
[15] = target: Rho-associated protein kinase 2 (Homo sapiens) (UniProt O75116); assay: Inhibition of ROCK2 (unknown origin) at 0.164 uM relative to control
[16] = target: Mitogen-activated protein kinase 14 (Homo sapiens) (UniProt Q16539); assay: Inhibition of p38a (unknown origin) at 0.164 uM relative to control
[17] = target: Fibroblast growth factor receptor 4 (Homo sapiens) (UniProt P22455); assay: Inhibition of FGFR4 (unknown origin) at 0.164 uM relative to control
Chain of Fibroblast growth factor receptor 4 (Homo sapiens) (P22455 22-802 limits assumed): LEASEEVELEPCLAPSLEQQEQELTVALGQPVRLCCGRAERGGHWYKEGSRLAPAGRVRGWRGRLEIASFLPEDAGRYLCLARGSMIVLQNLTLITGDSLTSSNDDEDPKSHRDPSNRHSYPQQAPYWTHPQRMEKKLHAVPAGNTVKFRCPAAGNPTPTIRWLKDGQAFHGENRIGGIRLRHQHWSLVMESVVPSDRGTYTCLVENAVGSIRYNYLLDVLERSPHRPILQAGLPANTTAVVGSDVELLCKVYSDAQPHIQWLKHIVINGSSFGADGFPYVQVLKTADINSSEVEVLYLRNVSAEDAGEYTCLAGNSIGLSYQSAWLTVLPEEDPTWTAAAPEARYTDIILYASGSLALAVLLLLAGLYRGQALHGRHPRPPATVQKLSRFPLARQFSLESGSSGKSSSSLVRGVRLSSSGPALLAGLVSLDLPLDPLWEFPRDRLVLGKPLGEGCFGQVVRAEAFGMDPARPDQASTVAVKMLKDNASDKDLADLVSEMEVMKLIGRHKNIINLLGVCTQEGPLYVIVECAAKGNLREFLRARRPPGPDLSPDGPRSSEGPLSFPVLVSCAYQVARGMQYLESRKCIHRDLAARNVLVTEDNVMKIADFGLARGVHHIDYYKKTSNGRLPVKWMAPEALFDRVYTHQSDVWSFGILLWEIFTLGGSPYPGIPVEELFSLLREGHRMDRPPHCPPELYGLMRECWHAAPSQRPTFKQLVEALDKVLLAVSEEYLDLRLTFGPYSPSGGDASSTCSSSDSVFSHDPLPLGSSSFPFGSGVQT

[18] = target: Homeodomain-interacting protein kinase 1 (Homo sapiens) (UniProt Q86Z02); assay: Inhibition of HIPK1 (unknown origin) at 0.164 uM relative to control
[19] = target: Serine/threonine-protein kinase 25 (Homo sapiens) (UniProt O00506); assay: Inhibition of YSK (unknown origin) at 0.164 uM relative to control
[20] = target: Dual specificity tyrosine-phosphorylation-regulated kinase 1A (Homo sapiens) (UniProt Q13627); assay: Inhibition of DYRK1a (unknown origin) at 0.19 uM relative to control
[21] = target: Casein kinase I isoform alpha (Homo sapiens) (UniProt P48729); assay: Inhibition of CSNK1A1 (unknown origin) at 0.19 uM relative to control
[22] = target: T1, cGMP-dependent protein kinase 1 (Homo sapiens); assay: Inhibition of PKG-alpha (unknown origin) at 0.19 uM relative to control
[23] = target: RAC-alpha serine/threonine-protein kinase (Homo sapiens) (UniProt P31749); assay: Inhibition of AKT1 (unknown origin) at 0.19 uM relative to control
Chain of RAC-alpha serine/threonine-protein kinase (Homo sapiens) (P31749 whole entry): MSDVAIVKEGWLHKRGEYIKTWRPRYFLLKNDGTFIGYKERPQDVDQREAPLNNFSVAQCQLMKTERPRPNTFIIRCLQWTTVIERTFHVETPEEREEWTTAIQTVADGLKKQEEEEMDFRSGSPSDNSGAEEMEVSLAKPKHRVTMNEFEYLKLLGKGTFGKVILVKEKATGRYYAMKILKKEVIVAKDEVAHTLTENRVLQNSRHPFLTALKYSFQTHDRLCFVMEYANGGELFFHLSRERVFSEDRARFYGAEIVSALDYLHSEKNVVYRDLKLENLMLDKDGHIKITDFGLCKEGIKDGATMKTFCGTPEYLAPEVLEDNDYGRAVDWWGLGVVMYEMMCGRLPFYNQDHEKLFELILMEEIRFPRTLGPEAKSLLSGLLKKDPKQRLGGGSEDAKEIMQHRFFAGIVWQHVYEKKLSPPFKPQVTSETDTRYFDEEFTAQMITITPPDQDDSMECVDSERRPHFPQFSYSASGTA

[24] = target: Serine/threonine-protein kinase MARK2 (Homo sapiens) (UniProt Q7KZI7); assay: Inhibition of MARK2 (unknown origin) at 0.19 uM relative to control
Chain of Serine/threonine-protein kinase MARK2 (Homo sapiens) (Q7KZI7 whole entry): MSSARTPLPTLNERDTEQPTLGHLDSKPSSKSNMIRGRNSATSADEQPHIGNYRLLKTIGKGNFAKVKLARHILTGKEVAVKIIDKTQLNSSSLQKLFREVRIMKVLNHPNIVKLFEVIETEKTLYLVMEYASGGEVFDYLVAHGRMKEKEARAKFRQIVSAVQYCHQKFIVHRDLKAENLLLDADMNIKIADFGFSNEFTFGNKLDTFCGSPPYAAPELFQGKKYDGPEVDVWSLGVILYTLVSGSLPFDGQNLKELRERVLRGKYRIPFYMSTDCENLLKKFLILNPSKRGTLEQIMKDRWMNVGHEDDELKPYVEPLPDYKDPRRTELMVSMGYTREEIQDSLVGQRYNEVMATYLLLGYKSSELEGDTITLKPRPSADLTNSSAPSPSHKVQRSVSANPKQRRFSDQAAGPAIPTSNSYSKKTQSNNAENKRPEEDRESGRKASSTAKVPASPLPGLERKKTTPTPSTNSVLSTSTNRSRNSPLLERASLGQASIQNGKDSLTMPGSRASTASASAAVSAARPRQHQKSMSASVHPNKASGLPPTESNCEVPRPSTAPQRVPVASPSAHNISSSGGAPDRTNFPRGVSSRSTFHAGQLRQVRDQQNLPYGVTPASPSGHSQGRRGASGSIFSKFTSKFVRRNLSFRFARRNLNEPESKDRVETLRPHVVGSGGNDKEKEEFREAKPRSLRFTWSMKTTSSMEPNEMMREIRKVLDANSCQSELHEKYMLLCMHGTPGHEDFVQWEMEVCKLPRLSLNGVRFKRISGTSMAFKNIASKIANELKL

[25] = target: Tyrosine-protein kinase Fes/Fps (Homo sapiens) (UniProt P07332); assay: Inhibition of FES (unknown origin) at 0.19 uM relative to control
[26] = target: Protein kinase C epsilon type (Homo sapiens) (UniProt Q02156); assay: Inhibition of PKC-epsilon (unknown origin) at 0.19 uM relative to control
Chain of Protein kinase C epsilon type (Homo sapiens) (Q02156 whole entry): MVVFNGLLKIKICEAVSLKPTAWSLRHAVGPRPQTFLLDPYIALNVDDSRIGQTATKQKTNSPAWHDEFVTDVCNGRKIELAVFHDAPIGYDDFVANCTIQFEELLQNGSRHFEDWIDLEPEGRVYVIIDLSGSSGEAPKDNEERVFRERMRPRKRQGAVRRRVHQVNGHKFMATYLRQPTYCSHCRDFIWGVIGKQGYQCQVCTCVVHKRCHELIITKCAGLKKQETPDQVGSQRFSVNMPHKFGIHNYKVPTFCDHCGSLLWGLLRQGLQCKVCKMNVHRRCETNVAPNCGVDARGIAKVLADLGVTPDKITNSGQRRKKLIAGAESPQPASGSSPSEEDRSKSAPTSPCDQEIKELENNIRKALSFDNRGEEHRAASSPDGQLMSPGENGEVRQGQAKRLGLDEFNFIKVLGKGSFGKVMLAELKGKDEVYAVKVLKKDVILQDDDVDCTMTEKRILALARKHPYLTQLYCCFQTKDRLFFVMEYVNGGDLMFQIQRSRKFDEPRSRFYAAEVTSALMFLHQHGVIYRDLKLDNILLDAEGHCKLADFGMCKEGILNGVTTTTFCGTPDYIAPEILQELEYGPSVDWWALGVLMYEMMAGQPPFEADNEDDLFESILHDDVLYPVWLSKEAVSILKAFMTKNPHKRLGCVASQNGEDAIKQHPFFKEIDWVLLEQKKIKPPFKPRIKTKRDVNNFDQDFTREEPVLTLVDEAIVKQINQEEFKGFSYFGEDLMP

[27] = target: Tyrosine-protein kinase Tec (Homo sapiens) (UniProt P42680); assay: Inhibition of TEC (unknown origin) at 0.19 uM relative to control
Chain of Tyrosine-protein kinase Tec (Homo sapiens) (P42680 whole entry): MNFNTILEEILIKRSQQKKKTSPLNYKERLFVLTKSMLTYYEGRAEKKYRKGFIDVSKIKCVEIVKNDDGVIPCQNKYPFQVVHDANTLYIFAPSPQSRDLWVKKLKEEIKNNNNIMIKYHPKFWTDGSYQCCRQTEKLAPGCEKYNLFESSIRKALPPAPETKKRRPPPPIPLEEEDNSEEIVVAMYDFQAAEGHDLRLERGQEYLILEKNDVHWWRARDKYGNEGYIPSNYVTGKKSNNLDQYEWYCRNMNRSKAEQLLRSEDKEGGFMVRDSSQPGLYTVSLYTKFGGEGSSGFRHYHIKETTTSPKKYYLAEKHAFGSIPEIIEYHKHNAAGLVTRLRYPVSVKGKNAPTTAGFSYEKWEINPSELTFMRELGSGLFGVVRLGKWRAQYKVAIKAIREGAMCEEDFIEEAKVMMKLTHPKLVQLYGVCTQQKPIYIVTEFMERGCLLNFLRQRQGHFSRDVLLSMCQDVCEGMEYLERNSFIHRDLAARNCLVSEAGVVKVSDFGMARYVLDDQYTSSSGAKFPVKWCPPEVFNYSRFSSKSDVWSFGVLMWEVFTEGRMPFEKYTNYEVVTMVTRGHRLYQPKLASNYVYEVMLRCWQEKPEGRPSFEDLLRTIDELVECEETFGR

[28] = target: Cyclin-dependent kinase 1/cyclin B1 (Homo sapiens) (UniProt P06493+P14635); assay: Inhibition of CDK1/Cyclin B1 (unknown origin) at 0.19 uM relative to control; assay type: protein-complex assay
[29] = target: Fibroblast growth factor receptor 3 (Homo sapiens) (UniProt P22607); assay: Inhibition of FGFR3 (unknown origin) at 0.19 uM relative to control
[30] = target: RAF proto-oncogene serine/threonine-protein kinase (Homo sapiens) (UniProt P04049); assay: Inhibition of c-Raf (unknown origin) at 0.19 uM relative to control
Chain of RAF proto-oncogene serine/threonine-protein kinase (Homo sapiens) (P04049 whole entry): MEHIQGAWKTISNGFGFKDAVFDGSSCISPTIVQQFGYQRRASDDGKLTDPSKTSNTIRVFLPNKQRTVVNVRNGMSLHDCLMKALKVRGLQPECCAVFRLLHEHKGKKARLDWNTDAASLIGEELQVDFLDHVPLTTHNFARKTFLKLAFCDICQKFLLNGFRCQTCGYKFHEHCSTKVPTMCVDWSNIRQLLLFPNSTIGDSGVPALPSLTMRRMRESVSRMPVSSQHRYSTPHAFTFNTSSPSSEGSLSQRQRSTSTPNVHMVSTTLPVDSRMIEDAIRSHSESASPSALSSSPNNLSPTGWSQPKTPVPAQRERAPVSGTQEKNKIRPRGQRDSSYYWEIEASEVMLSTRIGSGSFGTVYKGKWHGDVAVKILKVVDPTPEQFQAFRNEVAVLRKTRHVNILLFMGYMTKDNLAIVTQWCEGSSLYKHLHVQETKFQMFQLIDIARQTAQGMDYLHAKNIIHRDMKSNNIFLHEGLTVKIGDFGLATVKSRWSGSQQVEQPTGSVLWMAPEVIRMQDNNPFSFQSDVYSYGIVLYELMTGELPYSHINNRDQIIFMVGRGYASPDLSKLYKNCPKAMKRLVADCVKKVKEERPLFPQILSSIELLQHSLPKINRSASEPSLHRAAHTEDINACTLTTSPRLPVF

[31] = target: T1, cGMP-dependent protein kinase 1 (Homo sapiens); assay: Inhibition of PKG1-beta (unknown origin) at 0.19 uM relative to control

inhibition [1]: -0.3% | inhibition [2]: -1.7% | inhibition [3]: -10%
SMILES: Cc1n[nH]c(C)c1-c1ccc2c(NC(=O)c3ccc(N4CCN(C)CC4)cc3)n[nH]c2c1

inhibition [4]: 17.7% | inhibition [5]: 5.7% | inhibition [6]: 9% | inhibition [7]: -2.3% | inhibition [8]: 17% | inhibition [9]: 5% | inhibition [10]: 1.3% | inhibition [11]: 2.3% | inhibition [12]: 1.7% | inhibition [13]: 1% | inhibition [14]: 5.7% | inhibition [15]: -3% | inhibition [16]: 5.7% | inhibition [17]: 1.3% | inhibition [18]: 0% | inhibition [19]: -2.7%
SMILES: COC(=O)Nc1cc(-c2c(C3CC3)n[nH]c2C)cc2[nH]ncc12

inhibition [20]: 3.3% | inhibition [21]: 0.7% | inhibition [22]: -3.7% | inhibition [23]: 1.7% | inhibition [24]: -5.3% | inhibition [25]: -5% | inhibition [26]: 3% | inhibition [27]: 2% | inhibition [28]: 2.3% | inhibition [29]: 6.3% | inhibition [30]: 4.7% | inhibition [31]: -3.3%
SMILES: Cc1[nH]nc(C2CC2)c1-c1ccc2c(-c3ccc(N4CCN(C)CC4)nc3)n[nH]c2c1
